Consider four molecules from patent publication US20220291238A1, “Methods for Predicting Treatment Response in Ulcerative Colitis” (Janssen Biotech, Inc., priority 2021, published 2022).

Assay [1] relates to patients with moderate-to-severe UC. Nature of the assay: UNIFI phase 3 trial: ustekinumab induction in UC patients stratified by baseline IL22 enrichment score. The following applies: week 8. The class given is in vivo, human. The text has this: Gene Set Variation Analysis: To test the activation of each of the cytokine regulated transcriptional programs we used gene set variation analysis (GSVA) (56) to probe whole transcriptional profiles of previously reposited datasets and the dataset generated in the context of the ustekinumab and golimumab trials programs.
UNIFI trial programme: The UNIFI trial was a randomized placebo-controlled phase 3 clinical trial evaluating the efficacy and safety of ustekinumab (NCT02407236) and has already been reported (43). In this study, for the first time, transcriptional data from biopsies were reported, which were correlated to clinical, endoscopic and biomarker data available from the UNIFI cohort. Colonic biopsies were sampled at defined time points after institution of treatment in a subset of patients and were immediately transferred to RNALater (Qiagen) and stored at −80° C. prior to RNA extraction. Whole genome transcriptomics were performed on the Affymetrix HG U133 PM array. Clinical data was recorded prospectively according to the trial protocol. Outcomes reported include: clinical remission (defined as a total Mayo score of ≤2 and no subscore >1) and deep remission (which required both histologic improvement (defined as neutrophil infiltration in <5% of crypts, no crypt destruction, and no erosions, ulcerations, or granulation tissue) and endoscopic improvement) at week 8. Analysis presented is based on all patients receiving ustekinumab regardless of dose (130 mg and 6 mg/kg).
Next, it was determined whether core transcripts regulated by the IL23/IL22 axis were differentially expressed in diseased tissue of UC patients. Gene Set Variation Analysis (GSVA) is an algorithm which tests whether entire transcriptional programmes are enriched in complex and heterogeneous samples. […] Endoscopically acquired colonic biopsies were sampled from the sigmoid colon of patients with moderate-to-severe UC (n=550) enrolled to the UNIFI phase III clinical trial, a randomized, placebo controlled trial evaluating the efficacy of ustekinumab, a monoclonal antibody (mAb) that blocks the p40 subunit shared by the human IL-12 and IL-23 cytokines. […] These findings were replicated in 2 additional independent cohorts of UC patients where transcriptomic data was available in publicly accessible repositories (GSE50971 and GSE16879, FIG. 4A). […] Consistent with IL23 being an important driver of IL22, there was a significant correlation between the enrichment scores for IL23 and IL22 in colonic biopsies.
Although IL23 and IL22 responsive transcriptional programs were enriched at population level in UC patients, there was considerable variation in magnitude of enrichment. Since it was unlikely that this variation was being driven by differences in disease severity (all patients in the UNIFI trial program had moderate to severe UC, with Mayo endoscopy subscores of either 2 or 3), the possibility that this molecular heterogeneity might represent important differences in underlying disease immunobiology was considered. If molecular stratification of UC patients according to the magnitude of IL23/IL22 responsive transcript enrichment was biologically and/or clinically meaningful, it was reasoned that UC patients with different degrees of enrichment would experience different outcomes and follow different trajectories. To test this hypothesis, patients from the UNIFI trial program were stratified according to IL23 or IL22 enrichment scores (in colonic biopsies sampled immediately prior initiation with ustekinumab), and whether these differences in molecular phenotype impacted treatment response were evaluated. Enrichment scores in colonic tissue, for both cytokines, could differentiate responders and non-responders to ustekinumab induction therapy (including patients on 130 mg and 6 mg/kg dose), although, the IL22-responsive transcriptional program was especially discriminatory (FIGS. 3D-3F and FIGS. 5A-5D). […]

The test system of assay [2] is lamina propria mononuclear cells (LPMC). Kind of assay: IL23 stimulation of LPMC from UC patients, RNA-seq. The class given is cell-based, human. The method, then:
Human LPMC isolation: Colonic mucosal biopsies were obtained from UC patients (n=5) with endoscopically active disease (Mayo endoscopic subscore ≥2). LPMCs were isolated using a non-digestion, ‘walk out’ method previously published (Di Marco Barros et al., 2016, Cell 167, 203-218). In brief, 9 mm×9 mm×1.5 mm Cellfoam matrices (Cytomatrix PTY Ltd; Victoria, Australia) were autoclaved and incubated in 100 μg/mL rat tail collagen I (BD Biosciences; San Jose, Calif.) in PBS for 30 min at 37° C. and washed twice in PBS. Biopsies were washed for 20 min in 5 mL wash medium (RPMI 1640 10% FCS, β-mercaptoethanol, penicillin (500U/ml), streptomycin ([…]), metronidazole (5 mg/ml), gentamicin ([…], Sigma-Aldrich) and amphotericin 12.5 mg/ml (Thermo Fisher Scientific; Waltham, Mass.)). One endoscopic biopsy was placed on top of each matrix, which was then inverted and pressure was applied to crush the biopsy into the matrix. The matrices were placed into a 24-well plate (1 per well) and covered with 2 mL RPMI 1640 (supplemented with 10% FCS, β-mercaptoethanol, penicillin (100 U/ml), streptomycin ([…]), metronidazole (1 mg/ml), gentamicin (20 mg/ml), amphotericin (2.5 mg/ml)) and IL-2 (100U/mL, Novartis Pharmaceutical UK; London, United Kingdom). Cells were harvested and residual biopsy and empty wells were washed with PBS 0.02 mM HEPES. The cell suspension was passed through a […] nylon cell strainer, centrifuged at 400 g for 5 minutes.
After LPMC isolation, a cell count was performed using a hemochromocytometer and 200,000 cells were placed in each well of a 96 well round bottomed plate until the supply was exhausted. Complete media either with or without IL23 (10 ng/ml Biolegend; San Diego, Calif.) was added to each well to a total volume of 200 μl and incubated at 37° C. at 5% CO2 for 4 hours. Then cells from wells treated in the same condition were combined in a 1.5 ml RNAse free Eppendorf. The Eppendorfs were centrifuged at 1200 g for 5 minutes, the supernatant was removed and 800 μl Qiazol (Qiagen, Germany) added and mechanically homogenized using a needle and syringe.
(§1) RNA extraction: Colonoids and LPMC were treated in a similar fashion. Cells were lysed and RNA was extracted using the RNAeasy kit (Qiagen; Hilden, Germany). This step was optimized balancing the effectiveness of elimination of DNA quantified (Qubit dsDNA HS assay kit) versus the loss of quantity of RNA (Qubit RNA BR assay kit). Optimal DNAse I concentration was determined to be ×5 the standard concentration. 500 ng of cDNA was then created using Revertaid cDNA synthesis kit (ThermoFisher) and diluted to a concentration of 6.25 ng/μl. Harvested colonoids were put in Qiazol and then RNA was extracted with the RNAeasy kit (Qiagen) as per manufacturer's guidelines. cDNA was created using the Revertaid cDNA synthesis kit (ThermoFisher).
Library preparation and sequencing: A total amount of 3 μg RNA per sample was used as input material for the RNA sample preparations. Sequencing libraries were generated using NEBNextR Ultra™ RNA Library Prep Kit for IlluminaR (NEB, Ipswich, Mass.) following manufacturer's recommendations and index codes were added to attribute sequences to each sample. Briefly, mRNA was purified from total RNA using poly-T oligo-attached magnetic beads. Fragmentation was carried out using divalent cations under elevated temperature in NEBNext First Strand Synthesis Reaction Buffer (5×). First strand cDNA was synthesized using random hexamer primer and M-MuLV Reverse Transcriptase (RNase H-). Second strand cDNA synthesis was subsequently performed using DNA Polymerase I and RNase H. Remaining overhangs were converted into blunt ends via exonuclease/polymerase activities. After adenylation of 3′ ends of DNA fragments, NEBNext Adaptor with hairpin loop structure were ligated to prepare for hybridization. […]

The test system of a further assay is human colonoids. Nature of the assay: Cytokine treatment of human colonoids, RNA-seq. The following applies: human colonoids, 24 hours. The class given is cell-based. The method, then: All patients provided informed consent (NRES/IRAS id:15/LO/1998). Subsequent establishment of human colonoids was performed as previously described by Sato et al (48). The crypts were cultured in growth medium containing advanced Dulbecco's modified Eagle's medium/F12, penicillin/streptomycin (100 units/mL), 10 mM HEPES, 2 mM Glutamax, supplements N2 (1×) and B27 (1×), 50 ng/mL mouse epidermal growth factor (all from Life Technologies; Carlsbad, Calif.), 1 mM N-acetylcysteine (Sigma-Aldrich; St. Louis, Mo.), 50% v/v Wnt3a conditioned medium, 10% v/v R-spondin-1 conditioned medium, 100 ng/mL murine recombinant noggin protein (Peprotech; Rocky Hill, N.J.), 10 nM gastrin (Sigma-Aldrich), 500 nM A83-01 (Bio-techne; Minneapolis, Minn.), 10 μM SB202190 (Sigma-Aldrich) and 10 mM Nicotinamide (Sigma-Aldrich). 10 μM Y-27632 (Sigma-Aldrich) was added to the culture medium for the initial 3 days. Medium was changed every 2 days. […] During the last 24 hours in differentiation medium, human colonoids were treated with human recombinant IL22 (10 ng/mL), IL17A (50 ng/mL), TNFα (10 ng/mL), IFNγ (20 ng/mL), IL13 (10 ng/mL) and IL22 (10 ng/mL)/IL17A (50 ng/mL) combination.
as §1
Library preparation and sequencing: A total amount of 3 μg RNA per sample was used as input material for the RNA sample preparations. Sequencing libraries were generated using NEBNextR Ultra™ RNA Library Prep Kit for IlluminaR (NEB, Ipswich, Mass.) following manufacturer's recommendations and index codes were added to attribute sequences to each sample. Briefly, mRNA was purified from total RNA using poly-T oligo-attached magnetic beads. Fragmentation was carried out using divalent cations under elevated temperature in NEBNext First Strand Synthesis Reaction Buffer (5×). First strand cDNA was synthesized using random hexamer primer and M-MuLV Reverse Transcriptase (RNase H-). Second strand cDNA synthesis was subsequently performed using DNA Polymerase I and RNase H. Remaining overhangs were converted into blunt ends via exonuclease/polymerase activities. After adenylation of 3′ ends of DNA fragments, NEBNext Adaptor with hairpin loop structure were ligated to prepare for hybridization. In order to select cDNA fragments of preferentially 150˜200 bp in length, the library fragments were purified with AMPure XP system (Beckman Coulter, Brea, Calif.). Then 3 μl USER Enzyme (NEB) was used with size-selected, adaptor-ligated cDNA at 37° C. for 15 minutes followed by 5 minutes at 95° C. before PCR. Then PCR was performed with Phusion High-Fidelity DNA polymerase, Universal PCR primers and Index (X) Primer. At last, PCR products were purified (AMPure XP system) and library quality was assessed on the Agilent Bioanalyzer 2100 system. The clustering of the index-coded samples was performed on a cBot Cluster Generation System using HiSeq PE Cluster Kit cBot-HS (Illumina; San Diego, Calif.) according to the manufacturer's instructions. After cluster generation, the paired-end libraries were sequenced on an Illumina HiSeq platform. […]

Setting [3] is: patients with low IL22 enrichment scores (ES<0).

On to “ustekinumab: monoclonal antibody blocking the p40 subunit shared by IL-12 and IL-23; heavy chain SEQ ID NO:10, light chain SEQ ID NO:11”, for which the “outcomes in UC patients with high IL22 enrichment scores” value in assay [1] (high IL22 enrichment scores) is on record as “broadly comparable to placebo treated patients”. Moreover, in assay [1] (setting [3]), the clinical remission is given as 26.6%; the “deep remission (clinical, endoscopic and histologic remission)” value amounted to 22.7%; the mucosal healing stood at 25.9%. For the same molecule, in assay [1] (unstratified UC patients), the “deep remission (clinical, endoscopic and histologic remission)” value was 11.7%; the mucosal healing is reported as 15.6%. The molecule further returned a clinical remission in assay [1] (unstratified UC patients, ustekinumab induction 130 mg and 6 mg/kg pooled) of 13.4%.

As for “IL23: recombinant IL23 (10 ng/ml, Biolegend) used to stimulate LPMC”, in assay [2] (IL23 10 ng/ml, 4 hours), the “GZMB transcript fold change” value is given as 1.40, the “IFNG transcript fold change” value turned out to be 1.77, the “IL17A transcript fold change” value turned out to be 1.24 and the “IL17F transcript fold change” value amounted to 1.70. In assay [2] (IL23 10 ng/ml, 4 hours), the “IL22 transcript fold change” value came out at 1.69 and the “TNFRSF8 transcript fold change” value is recorded as 1.41. In addition, in assay [2] (filtered at P<0.01), the differentially expressed transcripts was found to be 222 transcripts, the downregulated transcripts is 110 and the upregulated transcripts was 112.

Regarding “IL13: human recombinant IL13 (10 ng/mL) used on human colonoids”, the “regulation of chemokine expression” value in the assay with human colonoids was “strongly upregulate both eosinophil-active chemokines CCL24 and CCL26”.

B1: IFNγ: human recombinant IFNγ (20 ng/mL) used on human colonoids (protein, UniProt P01579 24-161, looked up)
Interferon gamma: QDPYVKEAENLKKYFNAGHSDVADNGTLFLGILKNWKEESDRKIMQSQIVSFYFKLFKNFKDDQSIQKSVETIKEDMNVKFFNSNKKKRDDFEKLTNYSVTDLNVQRKAIHELIQVMAELSPAAKTGKRKRSQMLFRG
As to B1, in the assay on human colonoids, the “regulation of chemokine expression” value was “strongly upregulated CXCL9 and CXCL10”.
